In ChEMBL document CHEMBL1201862, “PubChem BioAssay data set” (2004):
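Protocol summary: plate cells (96-well), add compound at 5 concentrations, incubate 48 h, interpolate endpoints linearly. Abbreviation: GI50, concentration required for 50% inhibition of growth.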 The source made the active and inactive calls. Cut-off read from the data, not from the text of the source: active = GI50 up to about 1.1 µM and inactive = higher.

How the values were obtained:
Assay in all cases: NCI tumour cell line growth inhibition, 48 h
KM-20L2 = test system: KM-20L2
M19-MEL = test system: M19-MEL
HOP-18 = test system: HOP-18
LXFL 529 = test system: LXFL 529
DLD-1 = test system: DLD-1
DMS-273 = test system: DMS-273
XF498 = test system: XF498
SNB-78 = test system: SNB-78
RXF 631 = test system: RXF 631

SMILES	GI50 (KM-20L2)	GI50 (M19-MEL)	GI50 (HOP-18)	GI50 (LXFL 529)	GI50 (DLD-1)	GI50 (DMS-273)	GI50 (XF498)	GI50 (SNB-78)	GI50 (RXF 631)
Oc1ccc(Br)cc1/C=N/c1ccc(Oc2ccc(/N=C/c3cc(Br)ccc3O)cc2)cc1	> 19.6 µM (inactive)	> 19.6 µM (inactive)	> 19.6 µM (inactive)	> 19.6 µM (inactive)	> 19.6 µM (inactive)	> 19.6 µM (inactive)	–	–	–
CCCCCCCCCC(=O)OCC1OC(n2cc(F)c(=O)[nH]c2=O)C(NC(=O)OCc2ccccc2)C(OC(=O)CCCCCCCCC)C1O (stereo not drawn)	> 10 µM (inactive)	36.8 µM (inactive)	–	24.7 µM (inactive)	–	36.8 µM (inactive)	–	–	–
CCCCc1c2c([n+]([O-])c3c1CCCC3)CCCC2	> 100 µM (inactive)	66.8 µM (inactive)	–	> 100 µM (inactive)	–	96.6 µM (inactive)	> 100 µM (inactive)	–	–
Cc1nc2ccccc2c(=O)n1-c1ccccc1I	–	> 100 µM (inactive)	–	90.4 µM (inactive)	> 100 µM (inactive)	–	–	> 100 µM (inactive)	–
N#Cc1c2ccccc2c(Cc2ccc3c(c2)OCCOCCOCCOCCOCCO3)c2ccccc12	10 µM (inactive)	–	10.1 µM (inactive)	5.46 µM (inactive)	10.3 µM (inactive)	4.68 µM (inactive)	10.5 µM (inactive)	9.14 µM (inactive)	–
CC(=O)OC1OC2C(NC(=O)OC(C)(C)C)C1CC2(OCc1ccccc1)OCc1ccccc1 (stereo not drawn)	19.9 µM (inactive)	25.8 µM (inactive)	19.5 µM (inactive)	20 µM (inactive)	–	18.6 µM (inactive)	18.9 µM (inactive)	37.6 µM (inactive)	33.4 µM (inactive)
CN(C)CCC(/C=C/c1ccccc1)=N\Nc1ccc(Cl)cc1Cl	–	15.6 µM (inactive)	10.2 µM (inactive)	10.9 µM (inactive)	14.1 µM (inactive)	13.2 µM (inactive)	–	13.5 µM (inactive)	–
Cc1cc2nc3c(C(OC4OC(CO)C(O)C(O)C4O)C(O)CO)nn(-c4ccc(F)cc4)c3nc2cc1C (stereo not drawn)	> 100 µM (inactive)	> 100 µM (inactive)	–	> 100 µM (inactive)	> 100 µM (inactive)	–	> 100 µM (inactive)	> 100 µM (inactive)	> 100 µM (inactive)
Cc1n[nH]c(=S)n(C)c1=S	> 100 µM (inactive)	> 100 µM (inactive)	27.2 µM (inactive)	> 100 µM (inactive)	> 100 µM (inactive)	> 100 µM (inactive)	> 100 µM (inactive)	> 100 µM (inactive)	> 100 µM (inactive)
C[C@@]1(O)CC[C@]2(C)C3CCCC3[C@H]12 (stereo partly drawn)	> 100 µM (inactive)	> 100 µM (inactive)	> 100 µM (inactive)	> 100 µM (inactive)	> 100 µM (inactive)	> 100 µM (inactive)	–	> 100 µM (inactive)	> 100 µM (inactive)
COc1ccccc1C12OC(=O)C1(C)Oc1ccccc1C2=O (stereo not drawn)	> 100 µM (inactive)	> 100 µM (inactive)	–	> 100 µM (inactive)	> 100 µM (inactive)	22.5 µM (inactive)	> 100 µM (inactive)	> 100 µM (inactive)	30.8 µM (inactive)
N#Cc1c(C[n+]2ccccc2)c2ccccc2oc1=O	> 100 µM (inactive)	> 100 µM (inactive)	–	> 100 µM (inactive)	> 100 µM (inactive)	> 100 µM (inactive)	> 100 µM (inactive)	> 100 µM (inactive)	–
CC1=C(C(=O)CC(=O)C(=O)Nc2ccccc2C)Sc2ccccc2N1	> 81.3 µM (inactive)	> 100 µM (inactive)	> 100 µM (inactive)	–	> 45.8 µM (inactive)	> 100 µM (inactive)	–	> 100 µM (inactive)	–
FC(F)(F)c1ccc(C2SCc3nc4ccccc4n32)cc1 (stereo not drawn)	–	66.8 µM (inactive)	> 100 µM (inactive)	23.4 µM (inactive)	7.24 µM (inactive)	33.8 µM (inactive)	–	> 100 µM (inactive)	2.96 µM (inactive)
CN(C)C(=S)/N=c1\ssc(=S)n1Cc1ccncc1	32.9 µM (inactive)	10.7 µM (inactive)	17.7 µM (inactive)	16.3 µM (inactive)	16 µM (inactive)	16.4 µM (inactive)	5.66 µM (inactive)	> 100 µM (inactive)	3.8 µM (inactive)
O=[N+]([O-])c1ccc2nc(/C(=N/Nc3ccccc3)C(O)c3ccc(C(O)/C(=N\Nc4ccccc4)c4nc5ccc([N+](=O)[O-])cc5nc4O)cc3)cnc2c1 (stereo not drawn)	11.5 µM (inactive)	58.9 µM (inactive)	–	–	–	–	–	–	–
CC1(C)C(=O)C(=Cc2ccco2)C1=O	–	> 100 µM (inactive)	> 100 µM (inactive)	> 100 µM (inactive)	> 100 µM (inactive)	–	> 100 µM (inactive)	> 100 µM (inactive)	> 100 µM (inactive)
CC(C)(CN1CCCCC1)C(=O)/C=C/c1ccc(/C=C/C(=O)C(C)(C)CN2CCCCC2)cc1	0.644 µM (active)	0.982 µM (active)	1.28 µM (inactive)	0.262 µM (active)	0.142 µM (active)	0.361 µM (active)	0.344 µM (active)	2.46 µM (inactive)	–
COc1cc([C@@H]2c3cc4c(cc3[C@@H](NC(=O)c3ccc([N+](=O)[O-])cc3)C3COC(=O)[C@@H]32)OCO4)cc(OC)c1O (stereo partly drawn)	0.615 µM (active)	1.25 µM (inactive)	67.8 µM (inactive)	3.13 µM (inactive)	1.38 µM (inactive)	0.111 µM (active)	0.166 µM (active)	1.92 µM (inactive)	1.02 µM (active)
O=C(c1ccccc1)C1(Br)S(=O)(=O)OCCOS1(=O)=O	> 100 µM (inactive)	> 100 µM (inactive)	–	> 100 µM (inactive)	> 100 µM (inactive)	> 100 µM (inactive)	> 100 µM (inactive)	> 100 µM (inactive)	–
NC1=NN(c2ccccc2)C(=O)C1/C(=N\NC(=O)c1cc2ccccc2cc1O)C(=O)Nc1ccc(Cl)cc1 (stereo not drawn)	32.7 µM (inactive)	26.4 µM (inactive)	25.4 µM (inactive)	22.2 µM (inactive)	21.6 µM (inactive)	20.2 µM (inactive)	34.6 µM (inactive)	34.8 µM (inactive)	49.1 µM (inactive)
CN(C)c1n/c(=N/Cc2ccco2)ss1	> 100 µM (inactive)	5.05 µM (inactive)	> 100 µM (inactive)	38.9 µM (inactive)	14.2 µM (inactive)	4.53 µM (inactive)	> 100 µM (inactive)	> 58.9 µM (inactive)	–
O=C(NC1C2CC3CC(C2)CC1C3)/C(Cl)=C1/Sc2ccccc2NC1=O (stereo not drawn)	> 100 µM (inactive)	> 91.6 µM (inactive)	> 100 µM (inactive)	42.5 µM (inactive)	> 100 µM (inactive)	> 49 µM (inactive)	> 100 µM (inactive)	> 100 µM (inactive)	–
COc1ccc(N2C(=O)C3CC(c4ccc(Br)cc4)c4c([nH]c5ccccc45)C3C2=O)cc1 (stereo not drawn)	9.46 µM (inactive)	10.2 µM (inactive)	7.82 µM (inactive)	4.07 µM (inactive)	10.1 µM (inactive)	6.41 µM (inactive)	13 µM (inactive)	14.8 µM (inactive)	–
COc1cc(/C=C/c2ccc(OC)c(O)c2)cc(OC)c1	20.4 µM (inactive)	6.41 µM (inactive)	–	6.03 µM (inactive)	5.52 µM (inactive)	15.2 µM (inactive)	3.37 µM (inactive)	5.64 µM (inactive)	–
COc1ccc(/C=C\c2cc(OC)c(OC)c(OC)c2)cc1	0.000428 µM (active)	< 0.01 µM (active)	0.973 µM (active)	0.000507 µM (active)	0.0004 µM (active)	0.000273 µM (active)	0.000741 µM (active)	0.000116 µM (active)	< 0.01 µM (active)
